Reference: patent US6627630B1, “Condensed pyridazine derivatives, their production and use” (Takeda Chemical Industries, Ltd., priority 1998, dated 2003)
Counter-ions that a name gives are not always drawn.

Compound `O=C(OCCOc1ccc2ncnn2n1)N1CCC(OC(c2ccccc2)c2ccccc2)CC1` [Example 25A, 6-[2-[4-(Diphenylmethoxy)piperidinocarbonyloxy]ethoxy][1,2,4]triazolo[1,5-b]pyridazine] has a melting point of 75 to 76 °C. With `CC(C)(C)c1cc2ncnn2nc1SCCOCCN1CCN(C(c2ccccc2)c2ccccc2)CC1` [Example 60A, 6-[2-[2-[4-(Diphenylmethyl)-1-piperazinyl]ethoxy]ethylthio]-7-t-butyl[1,2,4]triazolo[1,5-b]pyridazine] the melting point was 106 to 108 °C. With `c1ccc(C(c2ccccc2)N2CCN(CCCNc3ccc4ncnn4n3)CC2)cc1` [Example 5A, 6-[3-[4-(Diphenylmethyl)-1-piperazinyl]propylamino][1,2,4]triazolo[1,5-b]pyridazine] the melting point was 139 to 140 °C. `COc1cn2nc(OCCCN3CCN(C(c4ccccc4)c4ccccc4)CC3)ccc2n1` [Example 42A, 6-[3-[4-(Diphenylmethyl)-1-piperazinyl]propoxy]-2-methoxyimidazo[1,2-b]pyridazine] showed a melting point of 144 to 146 °C. In the case of `CC(C)(C(=O)O)c1cn2nc(CCCN3CCC(OC(c4ccccc4)c4ccccc4)CC3)ccc2n1` [Example 102A, 2-[6-[3-[4-(Diphenylmethoxy)piperidino]propyl]imidazo[1,2-b]pyridazin-2-yl]-2-methylpropionic Acid], the melting point is reported as 195 to 205 °C. In the case of `CC(C)(C(=O)O)c1nc2ccc(NCCCN3CCN(C(c4ccccc4)c4ccccc4)CC3)nn2c1Cl` [Example 85A, 2-[3-Chloro-6-[3-[4-(diphenylmethyl)-1-piperazinyl]propylamino]imidazo[1,2-b]pyridazin-2-yl]-2-methylpropionic Acid], the melting point is reported as 184 to 186 °C. `Cc1nc2ccc(NCCCN3CCC(OC(c4ccccc4)c4ccccc4)CC3)nn2c1C(=O)O` [Example 107A, [6-[3-[4-(Diphenylmethoxy)piperidino]propylamino]-2-methylimidazo[1,2-b]pyridazin-3-yl]carboxylic Acid] showed a melting point of 101 to 103 °C. Compound `CC(C)(C(=O)O)c1cn2nc(CCCN3CCN(C(c4ccccc4)c4ccccc4)CC3)ccc2n1` [Example 104A, 2-[6-[3-[4-(Diphenylmethyl)-1-piperazinyl]propyl]imidazo[1,2-b]pyridazin-2-yl]-2-methylpropionic Acid] has a melting point of 176 to 178 °C. In the case of `c1ccc(C(c2ccccc2)N2CCN(CCCCCCNc3ccc4ncnn4n3)CC2)cc1` [Example 37A, 6-[6-[4-(Diphenylmethyl)-1-piperazinyl]hexylamino][1,2,4]triazolo[1,5-b]pyridazine], the melting point is reported as 130 to 132 °C. With `CC(C)c1cc2ncnn2nc1SCCOCCN1CCN(C(c2ccccc2)c2ccccc2)CC1` (as salt: hydrochloride) [Example 59A, 6-[2-[2-[4-(Diphenylmethyl)-1-piperazinyl]ethoxy]ethylthio]-7-isopropyl[1,2,4]triazolo[1,5-b]pyridazine Dihydrochloride] the melting point was 143 to 145 °C. Work on `CCOC(=O)CNC(=O)c1cn2nc(NCCCN3CCC(OC(c4ccccc4)c4ccccc4)CC3)ccc2n1` [Example 70A, N-[6-[3-[4-(Diphenylmethoxy)piperidino]propylamino]imidazo[1,2-b]pyridazine-2-carbonyl]glycine Ethyl Ester] yielded a melting point of 172 to 174 °C. For `O=C(O)c1nc2ccc(NCCCN3CCC(OC(c4ccccc4)c4ccccc4)CC3)nn2n1` [Example 117A, [6-[3-[4-(Diphenylmethoxy)piperidino]propylamino][1,2,4]triazolo[1,5-b]pyridazin-2-yl]carboxylic Acid], the melting point was 135 to 138 °C. With `CCOC(=O)CCNC(=O)c1cn2nc(NCCCN3CCC(OC(c4ccccc4)c4ccccc4)CC3)ccc2n1` [Example 112A, N-[6-[3-[4-(Diphenylmethoxy)piperidino]propylamino]imidazo[1,2-b]pyridazine-2-carbonyl]-β-alanine Ethyl Ester] the melting point was 83 to 86 °C. With `O=C(OCCOc1ccc2ncnn2n1)N1CCN(C(c2ccccc2)c2ccccc2)CC1` [Example 26A, 6-[2-[4-(Diphenylmethyl)-1-piperazinyl-carbonyloxy]ethoxy][1,2,4]triazolo[1,5-b]pyridazine] the melting point was 157 to 159 °C. In the case of `CCOC(=O)C(C)(C)c1cn2nc(CCCCN3CCN(C(c4ccccc4)c4ccccc4)CC3)ccc2n1` [Example 94A, Ethyl 2-[6-[4-[4-(Diphenylmethyl)-1-piperazinyl]butyl]imidazo[1,2-b]pyridazin-2-yl]-2-methylpropionate], the melting point is reported as 105 to 106 °C. For `CC(C)(C(=O)O)c1cn2nc(NCCN3CCC(OC(c4ccccc4)c4ccccc4)CC3)ccc2n1` [Example 79A, 2-[6-[2-[4-(Diphenylmethoxy)piperidino]ethylamino]imidazo[1,2-b]pyridazin-2-yl]-2-methylpropionic Acid], the melting point was 194 to 198 °C. Work on `O=C(CCN1CCN(C(c2ccccc2)c2ccccc2)CC1)Nc1ccc2ncnn2n1` [Example 19A, 3-[4-(Diphenylmethyl)-1-piperazinyl]-N-([1,2,4]triazolo[1,5-b]pyridazin-6-yl)propionamide] yielded a melting point of 176 to 177 °C. With `OC(CNc1ccc2ncnn2n1)CN1CCC(OC(c2ccccc2)c2ccccc2)CC1` (centres unmarked) [Example 115A, 1-[4-(Diphenylmethoxy)piperidino]-3-[([1,2,4]triazolo[1,5-b]pyridazin-6-yl)amino]-2-propanol] the melting point was 82 to 87 °C. `Cc1cc2ncnn2nc1OCCCCCCN1CCN(C(c2ccccc2)c2ccccc2)CC1` (as salt: hydrochloride) [Example 51A, 6-[6-[4-(Diphenylmethyl)-1-piperazinyl]hexyloxy]-7-methyl[1,2,4]triazolo[1,5-b]pyridazine Dihydrochloride] showed a melting point of 170 to 172 °C. Work on `O=C(O)CNC(=O)c1nc2ccc(NCCCN3CCC(OC(c4ccccc4)c4ccccc4)CC3)nn2n1` [Example 125A, N-[6-[3-[4-(Diphenylmethoxy)piperidino]propylamino][1,2,4]triazolo[1,5-b]pyridazine-2-carbonyl]glycine] yielded a melting point of 256 to 258 °C. Compound `Cc1c(C(C)(C)C(=O)O)nc2ccc(NCCCN3CCC(OC(c4ccccc4)c4ccccc4)CC3)nn12` [Example 138A, 2-[6-[3-[4-(Diphenylmethoxy)piperidino]propylamino]-3-methylimidazo[1,2-b]pyridazin-2-yl]-2-methylpropionic Acid] has a melting point of 219 to 220 °C. Work on `CC(C)(C(=O)O)c1cn2nc(NCCCN3CCC(OC(c4ccccc4)c4ccccc4)CC3)ccc2n1.O.O` (hydrate or solvate) [Example 135A, 2-[6-[3-[4-(Diphenylmethoxy)piperidino]propylamino]imidazo[1,2-b]pyridazin-2-yl)-2-methylpropionic Acid Dihydrate] yielded a melting point of 203 to 205 °C. `CC(C)(CO)c1cn2nc(NCCCN3CCC(OC(c4ccccc4)c4ccccc4)CC3)ccc2n1` [Example 75A, 2-[6-[3-[4-(Diphenylmethoxy)piperidino]propylamino]imidazo[1,2-b]pyridazin-2-yl)-2-methylpropanol] gave a melting point of 105 to 108 °C. `c1ccc(C(OC2CCN(c3ccc4ncnn4n3)CC2)c2ccccc2)cc1` [Example 11A, 6-[4-(Diphenylmethoxy)piperidino][1,2,4]triazolo[1,5-b]pyridazine] showed a melting point of 137 to 139 °C. For `c1ccc(-c2nc3ccc(NCCCN4CCC(OC(c5ccccc5)c5ccccc5)CC4)nn3n2)cc1` [Example 32A, 6-[3-[4-(Diphenylmethoxy)piperidino]propylamino]-2-phenyl[1,2,4]triazolo[1,5-b]pyridazine], the melting point was 170 to 172 °C. `Cc1cc2ncnn2nc1OCCOCCN1CCN(C(c2ccccc2)c2ccccc2)CC1` [Example 47A, 6-[2-[2-[4-(Diphenylmethyl)-1-piperazinyl]ethoxy]ethoxy]-7-methyl[1,2,4]triazolo[1,5-b]pyridazine] showed a melting point of 71 to 72 °C. With `CCOC(=O)C(C)(C)c1cn2nc(NCCCN3CCC(NC(c4ccccc4)c4ccccc4)CC3)ccc2n1` [Example 108A, Ethyl 2-[6-[3-[4-(Diphenylmethylamino)piperidino]propylamino]imidazo[1,2-b]pyridazin-2-yl]-2-methylpropionate] the melting point was 115 to 117 °C. In the case of `c1ccc(C(OC2CCN(CCNc3ccc4ncnn4n3)CC2)c2ccccc2)cc1` [Example 13A, 6-[2-[4-(Diphenylmethoxy)piperidino]ethylamino][1,2,4]triazolo[1,5-b]pyridazine], the melting point is reported as 152 to 154 °C. With `OC(COc1ccc2ncnn2n1)CN1CCC(OC(c2ccccc2)c2ccccc2)CC1` (centres unmarked) [Example 16A, 1-[4-(Diphenylmethoxy)piperidino]-3-([1,2,4]triazolo[1,5-b]pyridazin-6-yloxy)-2-propanol] the melting point was 133 to 135 °C. Work on `COc1cn2nc(OCCCN3CCC(OC(c4ccccc4)c4ccccc4)CC3)ccc2n1` [Example 41A, 6-[3-[4-(Diphenylmethoxy)piperidino]propoxy]-2-methoxyimidazo[1,2-b]pyridazine] yielded a melting point of 133 to 135 °C. With `COC(=O)c1cc2ncnn2nc1NCCCN1CCC(OC(c2ccccc2)c2ccccc2)CC1` [Example 118A, Methyl[6-[3-[4-(Diphenylmethoxy)piperidino]propylamino][1,2,4]triazolo[1,5-b]pyridazin-7-yl]carboxylate] the melting point was 120 to 122 °C. With `Cc1nc2ccc(NCCCN3CCC(OC(c4ccccc4)c4ccccc4)CC3)nn2n1` [Example 20A, 6-[3-[4-(Diphenylmethoxy)piperidino]propylamino]-2-methyl[1,2,4]triazolo[1,5-b]pyridazine] the melting point was 119 to 120 °C. With `O=C(O)c1cc2ncnn2nc1NCCCN1CCC(OC(c2ccccc2)c2ccccc2)CC1` [Example 119A, [6-[3-[4-(Diphenylmethoxy)piperidino]propylamino][1,2,4]triazolo[1,5-b]pyridazin-7-yl]carboxylic Acid] the melting point was 207 to 209 °C. `CC(C)(C(=O)O)c1cn2nc(CCCCN3CCN(C(c4ccccc4)c4ccccc4)CC3)ccc2n1` [Example 95A, 2-[6-[4-[4-(Diphenylmethyl)-1-piperazinyl]butyl]imidazo[1,2-b]pyridazin-2-yl]-2-methylpropionic Acid] gave a melting point of 108 to 110 °C. With `Cc1cc2nc(C(C)(C)C(=O)O)cn2nc1OCCCN1CCC(OC(c2ccccc2)c2ccccc2)CC1` [Example 89A, 2-[6-[3-[4-(Diphenylmethoxy)piperidino]propoxy]-7-methylimidazo[1,2-b]pyridazin-2-yl]-2-methylpropionic Acid] the melting point was 122 °C.
